# Where two headings read alike, the source gives them in different places.
# Experiments:
# [1] = test system: Plasmodium falciparum NF54; experiment: P. falciparum in vitro drug sensitivity assay on asexual blood stage parasites ([3H]-hypoxanthine incorporation); type: cell-based; settings: read-out: PfNF54 IC50
# Escherichia coli ∆tolC = experiment: microbe, parasite or virus in culture; type: cell-based; settings: for MIC / inhibition at 50 µM: Escherichia coli; for inhibition at 50 µM: read-out: Ec∆tolC inh. at 50 µM (%)
# E. coli K12 = experiment: In vitro antibacterial activity (growth inhibition, OD600), E. coli wild-type; type: cell-based; settings: Escherichia coli; for inhibition at 50 µM: Table 1 and main text
# Acinetobacter baumannii = experiment: In vitro antibacterial activity (growth inhibition, OD600), A. baumannii; type: cell-based; settings: for MIC: read-out: Ab MIC95
# [2] = test system: Pseudomonas aeruginosa PA14; experiment: In vitro antibacterial activity (growth inhibition, OD600), P. aeruginosa; type: cell-based; settings: PA14, 50 μM compound, Table 1 and main text, read-out: PA14 inh. at 50 μM
# [3] = test system: Streptococcus pneumoniae (DSM20566); experiment: In vitro antibacterial activity (MIC), S. pneumoniae; type: cell-based; settings: read-out: Sp MIC95
# [4] = test system: Staphylococcus aureus ssp. Aureus; experiment: In vitro antibacterial activity (MIC), S. aureus; type: cell-based; settings: read-out: Sa MIC95
# Solubility in 7H9 medium = type: physicochemical; settings: M. tuberculosis growth medium (7H9)
# in vitro = settings: human, HepG2 CC50, 48 h, MTT
# [5] = test system: Mycobacterium tuberculosis (Mtb) strain H37Rv; experiment: microbe, parasite or virus in culture; type: cell-based; settings: 168 h, 7 days, footnote b: not active at maximum solubility, read-out: MtbH37Rv MIC90
# [6] = In vitro cytotoxicity by XTT assay; type: cell-based; settings: human, human monocyte-derived macrophages (hMdM)
# [7] = Plasmodium falciparum, NF54, Table 1 and main text
# [8] = K12, 50 μM compound, read-out: EcK12 inh. at 50 μM
# [9] = 50 μM compound, Table 1 and main text, read-out: Ab inh. at 50 μM
# [10] = Streptococcus pneumoniae, DSM20566, Table 1 and main text
# [11] = Streptococcus pneumoniae, DSM20566, Table S2, with standard deviation
# [12] = Staphylococcus aureus, Table 1 and main text
# [13] = Staphylococcus aureus, Table S2, with standard deviation
# [14] = 50 µM, Table S1, with standard deviation, read-out: Ab inh. at 50 µM (%)
Structure (SMILES),"IC50 [1, 7] [nM]",MIC (Escherichia coli ∆tolC; read-out: EcΔtolC MIC95) [µM],inhibition at 50 µM (Escherichia coli ∆tolC) [%],inhibition at 50 µM (E. coli K12; [8]) [%],inhibition at 50 µM (Acinetobacter baumannii; [9]) [%],inhibition at 50 µM [2] [%],"MIC [3, 10] [µM]","MIC [3, 11] [µM]","MIC [4, 12] [µM]","MIC [4, 13] [µM]",7h9 media Sol. (Solubility in 7H9 medium) [µM],CC50 (in vitro) [nM],MIC90 [5] [µM],MIC (Escherichia coli ∆tolC; read-out: Ec∆tolC MIC95 (µM)) [µM],CC90 at 24 h [6] [nM],also measured
O=C(Nc1cccc(C(F)(F)F)c1)c1cc(-c2cc(Cl)ccc2O)[nH]n1 [Compound 1a],210,> 50,< 10,< 10,< 10,< 10,> 50,> 50,> 50,> 50,< 8,> 50000,–,–,–,EcΔtolC MIC95 (Escherichia coli ∆tolC; Table 1 and main text): >50 µM; MIC ([3]; Table 1 and main text): >50 µM; MIC ([4]; Table 1 and main text): >50 µM
O=C(Nc1cccc([N+](=O)[O-])c1)c1cc(-c2cc(Cl)ccc2O)[nH]n1 [Compound 1c],510,> 50,–,–,–,–,> 50,> 50,> 50,> 50,32,–,> 32,–,–,–
O=C(Nc1cccc(CN2CCOCC2)c1)c1cc(-c2cc(Cl)ccc2O)[nH]n1 [Compound 2],1100,> 50,24 ± 12,–,–,–,> 50,> 50,> 50,> 50,16,~50000,> 16,–,–,–
O=C(Nc1cccc(CN2CCNCC2)c1)c1cc(-c2cc(Cl)ccc2O)[nH]n1 [Compound 3A],620,45,–,28,21,50,40,40 ± 7,> 50,> 50,64,12000,> 64,45 ± 1,–,–
O=C(Nc1cccc(N2CCNCC2)c1)c1cc(-c2cc(Cl)ccc2O)[nH]n1 [Compound 5A],130,21,–,83,34,60,26,26 ± 1,37,37 ± 10,64,9000,64,21 ± 2,–,inhibition at 50 µM (Acinetobacter baumannii; [14]): 34.3 ± 0.4%
O=C(Nc1ccc(N2CCNCC2)cc1)c1cc(-c2cc(Cl)ccc2O)[nH]n1 [Compound 6A],140,22.5,–,49,37,63,45,45,> 50,> 50,16,11800,> 16,22.5,–,–
NCc1cccc(NC(=O)c2cc(-c3cc(Cl)ccc3O)[nH]n2)c1 [Compound 7A],300,47,–,27,15,44,43,43 ± 11,> 50,> 50,64,28400,> 64,47 ± 1,–,–
NCc1ccc(NC(=O)c2cc(-c3cc(Cl)ccc3O)[nH]n2)cc1 [Compound 8A],> 2000,> 50,44 ± 16,–,–,–,> 50,> 50,> 50,> 50,16,30000,> 16,–,–,IC50 ([1]; Table 1 and main text): 1800 nM
N=C(N)NCc1ccc(NC(=O)c2cc(-c3cc(Cl)ccc3O)[nH]n2)cc1C(F)(F)F [Compound 10G],250,3.5,–,86,49,55,16,16 ± 5,5,5 ± 1,–,> 50000,8,3.5 ± 0.8,> 32000,–
"N=C(N)N1CCN(c2cc(NC(=O)c3cc(-c4cc(Cl)ccc4O)[nH]n3)cc(C(F)(F)F)c2)CC1 [Compound 11G, N-(3-(4-Carbamimidoylpiperazin-1-yl)-5-(trifluoromethyl)phenyl)-5-(5-chloro-2-hydroxyphenyl)-1H-pyrazole-3-carboxamide]",500,4,–,–,–,25,28,28 ± 15,3.2,3.2 ± 0.1,–,> 25000,8,4 ± 1,> 32000,"MIC (E. coli K12; K12, Table S1, printed inside the inhibition column, with standard deviation, unit from Table 1 footnote, read-out: EcK12 MIC95): 48 ± 5 µM; MIC (Acinetobacter baumannii; Table S1, printed inside the inhibition column, with standard deviation, unit from Table 1 footnote): 17 ± 5 µM; MIC (Acinetobacter baumannii; printed inside the Ab inhibition column, Table 1 and main text): 17 µM"
"CC(C)(C)OC(=O)N1CCN(c2ccc(NC(=O)c3cc(-c4cc(Cl)ccc4O)[nH]n3)cc2C(F)(F)F)CC1 [Compound 12B, tert-Butyl 4-(4-(5-(5-chloro-2-hydroxyphenyl)-1H-pyrazole-3-carboxamido)-2-(trifluoromethyl)phenyl)piperazine-1-carboxylate]",560,> 50,< 10,–,–,–,> 50,> 50,> 50,> 50,< 8,> 50000,–,–,–,inhibition at 50 µM (Acinetobacter baumannii; [14]): < 10%
"N=C(N)N1CCN(c2ccc(NC(=O)c3cc(-c4cc(Cl)ccc4O)[nH]n3)cc2C(F)(F)F)CC1 [Compound 12G, N-(4-(4-Carbamimidoylpiperazin-1-yl)-3-(trifluoromethyl)phenyl)-5-(5-chloro-2-hydroxyphenyl)-1H-pyrazole-3-carboxamide]",200,2.8,–,51,33,< 10,31,31 ± 6,2.4,2.4 ± 0.3,–,30000,4,2.8 ± 0.3,32000,–
"N=C(N)N1CCN(c2cc(NC(=O)c3cc(-c4cc(Cl)ccc4O)[nH]n3)ccc2C(F)(F)F)CC1 [Compound 13G, N-(3-(4-Carbamimidoylpiperazin-1-yl)-4-(trifluoromethyl)phenyl)-5-(5-chloro-2-hydroxyphenyl)-1H-pyrazole-3-carboxamide]",500,5,–,–,≥ 45,17,16,16 ± 6,2.5,2.5 ± 0.3,–,> 25000,8,5 ± 2,> 32000,"inhibition at 50 µM (E. coli K12; K12, read-out: EcK12 inh. at 50 μM, 50 μM compound): ≥ 45%"
